Data: patent publication US4801600A, “Aminomethyl oxooxazolidinyl cycloalkylbenzene derivatives useful as antibacterial agents” (E. I. Du Pont de Nemours and Company, priority 1987, dated 1989)
In brackets after ≈: the same amount, converted by molar mass. Where two headings read alike, the source gives them in different places.

Assays:
[1] = tested on: Staphylococcus aureus; test: Acute lethal mouse model, intraperitoneal Staphylococcus aureus infection; format: in vivo; conditions: 168 h, mice dosed 1 h and 4 h post-infection
Method: Determinations of in vivo efficacy are performed by inoculating mice intraperitoneally with cultures of the infecting organism diluted to produce 100% of mortality in control animals within twenty-four hours. The culture of S. aureus used to infect the animals was diluted to the required bacterial density using 5% aqueous hog gastric mucin. The compounds are dissolved or suspended in 0.25% aqueous Methocal® (Methocel®: Hydroxypropyl Methylcellulose, E15 Premium, Dow Chemical Company) for oral administration or sterile distilled water containing 5% dimethylsulfoxide (Fisher Scientific Company, Fairlawn, N.J.) for subcutaneous administration. The mice are dosed at one hour and at four hours post-infection. Mortality is recorded daily until test termination seven days post infection. The number of survivors in each treatment group on the seventh day after infection is used in the calculation of the ED50, the dose of compound that protects 50% of the mice (Litchfield, J. T. and Wildoxon. A simplified method for evaluating dose-effect experiments. J. Pharmacol Exp. Ther., 96:99-113, 1949 ).

[2] = tested on: Staphylococcus aureus; test: In vitro broth microdilution MIC, Staphylococcus aureus; format: cell-based; conditions: 24-hour MIC, Mueller-Hinton broth, read-out: Minimum Inhibitory Concentration, Staphylococcus aureus
Description: (§1) A standard microdilution method (National Committee for Clinical Standards. Tentative standard M7-T. Standard methods for dilution antimicrobial susceptibility tests for bacteria that grow aerobically. National Committee for Clinical Laboratory Standards, Villanova, PA. 1982) with Mueller-Hinton broth is used to determine the 24-hour minimal inhibitory concentrations (MIC's) for test strains of Staphylococcus aureus and Escherichia coli.

[3] = tested on: Escherichia coli; test: In vitro broth microdilution MIC, Escherichia coli; format: cell-based; conditions: 24-hour MIC, Mueller-Hinton broth, read-out: Minimum Inhibitory Concentration, Escherichia coli
Description: as §1

[4] = oral, survival at day 7, read-out: ED50, Oral Administration
[5] = sc, subcutaneous, survival at day 7, read-out: ED50, Subcutaneous Administration

| SMILES | ED50 [1, 4] | ED50 [1, 5] | MIC [2] | MIC [3] |
| --- | --- | --- | --- | --- |
| CC(=O)NCC1CN(c2ccc3c(c2)CCC3O)C(=O)O1 (single isomer, unassigned) [Example 17, (l)-N-[3-(2,3-Dihydro-1-hydroxy-1H-inden-5-yl)-2-oxooxazolidin-5-ylmethyl]acetamide] | 1.9 mg/kg | 1.8 mg/kg | 8 µg/mL (≈ 27.6 µM) | > 128 µg/mL |
| CC(=O)NCC1CN(c2ccc3c(c2)CCC3=O)C(=O)O1 (single isomer, unassigned) [Example 16, (l)-N-[3-(2,3-Dihydro-1-oxo-1H-inden-5-yl)-2-oxooxazolidin-5-ylmethyl]acetamide] | 1.6 mg/kg | 1.2 mg/kg | 2 to 4 µg/mL (≈ 6.94 to 13.9 µM) | > 128 µg/mL |
| CC(=O)NCC1CN(c2ccc3c(c2)CCC3=NN2CCN(C)CC2)C(=O)O1 (single isomer, unassigned) [Example 18, (l)-N-[3-[1,2-Dihydro-1-(4-methyl-1-piperazinylimino)-1H-inden-5-yl]-2-oxooxazolidin-5-ylmethyl]acetamide] | 13.9 mg/kg | 20.3 mg/kg | 8 to 16 µg/mL (≈ 20.8 to 41.5 µM) | > 128 µg/mL |
| CC(=O)NCC1CN(c2ccc3c(c2)CCC3)C(=O)O1 (single isomer, unassigned) [Example 1F, (l)-N-[3-(2,3-Dihydro-1H-inden-5-yl)-2-oxooxazolidin-5-ylmethyl]acetamide] | 2.2 mg/kg | 1.7 mg/kg | 2 µg/mL (≈ 7.29 µM) | > 128 µg/mL |
